Measurements taken from patent US9938240B2, “Fluorinated derivatives of 3-hydroxypyridin-4-ones” (Apotex Technologies Inc., priority 2009, dated 2018).

Key:
[1] = test system: human neuroblastoma MC-65 cells; assay: cells; conditions: for EC100 / minimal effective concentration: Homo sapiens, MC65, 48 h; for EC100: read-out: EC100 (maximum effective concentration); for minimal effective concentration: read-out: TH (threshold protective concentration); for CC2 (cytotoxic concentration): MC-65, cultured without tetracycline; for CC2 (cytotoxic concentration) / CC1 (cytotoxic concentration): viability below 80%; for CC1 (cytotoxic concentration): MC-65, presence of TET
How it was run: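 MC-65 cells (conditional Aβ fusion-protein expression, TET-repressed) were washed free of TET and FBS, then exposed to compound ~48 h in serum-free medium without or with 1 μg/mL TET.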

[2] = test system: SH-SY5Y human neuroblastoma cells; conditions: for CC2 (cytotoxic concentration): H2O2-treated cells, viability below 80%; for CC1 (cytotoxic concentration): absence of H2O2, viability below 80%
How it was run: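 SH-SY5Y cells were treated with a range of compound concentrations, with or without 50 μM H2O2, in serum-free medium for 16–22 h. Viability was measured by MTT and expressed relative to cells receiving neither H2O2 nor compound. Runs without H2O2 assessed cytotoxicity.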

[3] = Stepwise formation constants for Zn-ligand system by potentiometric titration; assay type: physicochemical; conditions: for pZn^2+: pH 7.4, ligand 10 μM, metal 1 μM
Protocol: In a typical experiment, the sample solution was prepared by the following method: Apo7041 (126.3 mg, 0.50 mmol) was weighed into a 50 mL volumetric flask, and about 35 mL of a mixed solvent (0.1 M NaCl aqueous:MeOH, 1:1, v:v) was added. The mixture was sonicated for 10 min to give a clear colorless solution. The zinc stock solution (atomic absorption standard, Aldrich, 6.64 mL, 0.10 mmol) was pipetted into the solution followed by addition of sodium hydroxide solution (6.000 N, 300 μL). More of the mixed solvent was added to volume and the resulting solution was vortexed to mix. The molar ratio between the total zinc and the total Apo7041 was 1/5. 40 mL of the solution was transferred into a T70 titration cell by using a 10 mL digital pipet. A 6.000 N sodium hydroxide solution (160 μL) was added, and the pH (11.95) of the solution was recorded. The solution was allowed to equilibrate at 22° C. for 5 min.
The solution was then titrated against a 6.000 N hydrochloric acid solution at 22° C. by using a Mettler Toledo T70 autotitrator, until the pH reached 1.5. The volume of acid added and the pH reading were recorded. Thus, 523 measurements were taken for this experiment.
The data set of pH vs. acid volume for Zn-Apo7041 system was analyzed using Hyperquad 2000 software (version 2.1, Peter Gans, University of Leeds). The formation constants for Zn-Apo7041 system were optimized using the model shown in the first column of the table 29D. The results are shown in the second and third column.
pM^n+ is defined as −log [M(H2O)m]^n+ at physiological conditions, i.e.: pH 7.4, a ligand concentration of 10 μM, and a metal concentration of 1 μM. To calculate pM^n+ for a MLn system, βn and pKa values are needed (βn are the formation constants for M^n++n L^−⇄MLn; pKa are the equilibrium constants for L^−+n H^+⇄LHn^(n-1)+). The pM^n+ is calculated using the HySS software (HYSS© 2000 Protonic Software).

[4] = Distribution coefficient determination, D7.4 (1-octanol / K2HPO4 buffer); assay type: physicochemical; conditions: 1-octanol / K2HPO4 buffer 50 mM pH 7.4
Protocol: K2HPO4 buffer (50 mM, pH=7.4) and 1-octanol were used as the aqueous phase and the organic phase, respectively. The K2HPO4 buffer and 1-octanol were mixed, and pre-saturated with each other before use.
In a typical experiment, an aqueous solution of Apo6995 (3-hydroxy-2-methyl-1-(2,2,2-trifluoroethyl)pyridin-4(1H)-one) was prepared by weighing out 3 mg of the compound into a 10-mL test-tube. It was then mixed with K2HPO4 buffer (2 mL) and sonicated for 30 minutes with frequent vortexing. The solution was then filtered through HPLC syringe filter (4 mm PVDF syringe filter 0.45 μM) to obtain the aqueous solution.
One mL of this aqueous solution was pipetted out into another 10-mL test-tube and mixed with 1 mL of 1-octanol. The mixture was then vortexed for 1 hour. The solution was centrifuged at 2000 rpm for 10 minutes. A small amount of the lower aqueous layer was carefully pipetted out and analyzed by HPLC to obtain the peak height (HF). The distribution coefficient, D7.4, was calculated using the following equation: D7.4=(HI−HF)/HF.

[5] = 0.1M aqueous NaCl/MeOH, 1/1, v/v
[6] = 0.1M aqueous NaCl/MeOH, 1/1, v/v, listed as drawing 104

Compound	EC100 [1] [µM]	minimal effective concentration [1] [µM]	CC2 (cytotoxic concentration) [1] [µM]	CC1 (cytotoxic concentration) [1] [µM]	CC2 (cytotoxic concentration) [2] [µM]	CC1 (cytotoxic concentration) [2] [µM]	Log β111 (Zn2+) [3, 5]	Log β120 (Zn2+) [3, 5]	Log β121 (Zn2+) [3, 5]	Log β111 (Zn2+) [3, 6]	Log β120 (Zn2+) [3, 6]	Log β121 (Zn2+) [3, 6]	pZn^2+ [3]	D7.4 [4]	logD ([4]; read-out: Log D7.4)	Logβ1 (Zn2+) [3, 5]	Logβ2 (Zn2+) [3, 5]	Log D7.4 [4]
CN(C)C(c1c(O)c(=O)ccn1C)C(F)(F)F (stereo not shown) [Apo7041, 2-[1-(dimethylamino)-2,2,2-trifluoroethyl]-3-hydroxy-1-methylpyridin-4(1H)-one]	10	0.1	80	10	320	160	13.1	13.2	19.6	Logβ111 = 13.1	Logβ120 = 13.2	Logβ121 = 19.6	pZn^2+ = 6.0					
CNC(c1cn(C)c(C)c(O)c1=O)C(F)(F)F (stereo not shown) [Apo7056, 3-Hydroxy-1,2-dimethyl-5-[2,2,2-trifluoro-1-(methylamino)ethyl]pyridin-4(1H)-one]	10	0.1	80	80														
CN(C)Cc1c(O)c(=O)ccn1CC(F)(F)F [Apo7067, 2-[(dimethylamino)methyl]-3-hydroxy-1-(2,2,2-trifluoroethyl)pyridin-4(1H)-one]	10	0.1	80	80	>640	160								2.82	0.45			
O=c1ccn(CC(F)(F)F)c(CN2CCOCC2)c1O [Apo7323, 3-hydroxy-2-(morpholinomethyl)-1-(2,2,2-trifluoroethyl)pyridin-4(1H)-one]	20	1	80	80	320	160												
Cc1c(O)c(=O)c(C(N2CCOCC2)C(F)(F)F)cn1C (stereo not shown) [Apo7435, 3-hydroxy-1,2-dimethyl-5-(2,2,2-trifluoro-1-morpholinoethyl)pyridin-4(1H)-one]	10	1	40	40	320	80												
Cc1c(O)c(=O)ccn1C [Deferiprone, 3-hydroxy-1,2-dimethylpyridin-4(1H)-one, reference compound]								15.0					pZn^2+ = 6.3	0.17		Logβ1 = 8.1	Logβ2 = 15.0	−0.77
